Entries after “also recorded” stand apart in the source; their conditions may differ.
Experiments:
[1] = system: neonatal rat cardiomyocytes; conditions: neonatal rat cardiomyocytes cultures; cited from earlier work
[2] = system: 5LO (Ser523 phosphorylated 5LO); assay: immunoblotting of total 5LO and P-5LO in rat myocardium (whole cell homogenate); type: in vivo
Procedure: (§1) Rats received: 1) PIO (10 mg/kg/d); 2) ATV (10 mg/kg/d); 3) PIO (10 mg/kg/d)+H89 (20 mg/kg); 4) ATV (10 mg/kg/d)+H89 (20 mg/kg); 5) H89 (20 mg/kg) or 6) water alone (control). PIO and ATV were suspended in water and administered by gastric gavage once daily for 3 days; H-89 was dissolved in DMSO (final concentration 5% v/v) and injected intraperitoneally on the third day. Rats in groups 5 and 6 received water by gastric gavage once daily for 3 days. Rats in groups 1, 2 and 6 received intraperitoneal inkection of DMSO 5%. Sixteen hours after the injection, rats were euthanized and the hearts explanted for further analyses. In another experiment, rats received 3-day pretreatment with: 1) water (sham); 2) PIO (10 mg/kg/d); 3) ATV (10 mg/kg/d); 4) PIO (10 mg/kg/d)+ATV (10 mg/kg/d); or 5) LPS (10 mg/kg).
PIO and ATV were administered by oral gavage once daily as above; LPS was administered intravenously. In addition, rats in groups 1-4 received intravenous saline on the […], whereas rats in group 1 and 5 received water by gastric gavage once daily for 3 days and the LPS injection on the third day. Sixteen hours after the injection, rats were euthanized and the hearts explanted for further analyses.
The hearts were rapidly explanted, rinsed in cold PBS (pH 7.4), containing 0.16 mg/ml heparin to remove red blood cells and clots, frozen in liquid nitrogen and stored at −70° C. Myocardial samples from the anterior left ventricular wall were homogenized in RIPA lysis buffer (Santa Cruz Biotechnology, Santa Cruz, Calif.) and centrifuged at 14,000 rpm for 15 min at 4° C. The supernatant was collected and the total protein concentration was determined using the Lowry protein assay. […] The protein samples with loading buffer were run in 4-20% Tri-HCl Ready Gel at a 100V for 2 h until the desired molecular weight bands were separated. After electrophoresis, the gel was equilibrated in transfer buffer (25 mM Tris, 193 mM glycine, 0.1% SDS and 10% methanol) and the proteins were transferred to nitrocellulose membrane. The protein signals were quantified by an image-scanning-densitometer and the strength of each protein signal was normalized to the corresponding b-actin stain signal. Data are expressed as a ratio between the protein and the corresponding b-actin signal density.

5LO mRNA = assay: rtPCR of 5LO mRNA in adult rat cardiomyocytes; type: cell-based
Procedure: Cardiac myocytes were isolated from adult Sprague-Dawley rats (250-300 g, male). Animals were heparinized (1,000-2,000 units i.p.) 5 min before being anesthetized with ketamine (100 mg/kg) and xylazine (10 mg/kg), and the hearts were removed and placed in ice-cold heart media solution (in mmol/l: 112 NaCl, 5.4 KCl, 1 MgCl2, 9 NaH2PO4, and 11.1 D-glucose; supplemented with 10 HEPES, 30 taurine, 2 DL-carnitine, and 2 creatine, pH. 7.4). The hearts were perfused retrogradely in a Langendorff apparatus with Ca^2+-free heart media for 5 min at 5 ml/min at 37° C., followed by perfusion with Ca^2+-free heart media containing collagenase II, 210 U/mg (Worthington, Lakewood, N.J.) for 20 min. After perfusion, both ventricles were removed from the heart and minced in collagenase II-containing heart media for 10-15 min. The cell solution was then washed several times to remove collagenase II and reexposed to 1.2 mM Ca2^+ over 25 min to produce Ca2^+-tolerant cardiac myocytes. Myocytes were then plated in 4% FBS on laminin (2 μg/cm^2)-coated plates for 1 h and incubated at 37° C. in 5% CO2 for 12-24 h before experiments (21). Cells were incubated with 1) vehicle (0.07% ethanol); 2) PIO (10 μM)+ATV (10 μM); 3) H-89 (0.1 μM); or 4) PIO+ATV+H-89 for 12 hours. The supernatants were collected directly for LTB4 analyses by ELISA and the cells were harvested for immunoblotting. In addition, cells were plated in 8-chamber slides, received the same treatment as above and were used for immunohistochemical staining.
Equal amounts of total cellular RNA were reverse-transcribed with oligo(dT) primer by use of AMV Reverse Transcriptase (Applied Biosystems). Transcribed cDNAs (40 ng) were used for Real Time PCR with specific primers: rat ALOX5. […] The Ct (threshold cycle) is defined as the number of cycles required for the fluorescence signal to exceed the detection threshold. Expression of the ALOX5 relative to the GAPDH was calculated as the different between the threshold values of these two genes. […]

[3] = system: 5LO interaction with COX2 / cPLA2; assay: co-immunoprecipitation of 5LO with COX2 and cPLA2 in rat hearts; type: in vivo
Procedure: as §1
For co-immunoprecipitation, myocardial cytosolic, membranous and nuclear fractions (500 μg) were incubated with anti-5LO antibodies for 4 h followed by overnight incubation at 4° C. with Protein-A-Agarose. The agarose beads were collected by centrifugation and SDS/PAGE Western immunoblotting was performed with the supernatant fraction. The anti-5LO precipitates were subjected to immunoblotting with anti-COX2 or anti-cPLA2 antibodies.

5LO = assay: immunoblotting of 5LO in cytosolic, membranous and nuclear fractions of myocardial cells; type: in vivo; conditions: rat myocardium
Procedure: Rats received: 1) […] (20 mg/kg) or 6) water alone (control). PIO and ATV were suspended in water and administered by gastric gavage once daily for 3 days; H-89 was dissolved in DMSO (final concentration 5% v/v) and injected intraperitoneally on the third day. Rats in groups 5 and 6 received water by gastric gavage once daily for 3 days. Rats in groups 1, 2 and 6 received intraperitoneal inkection of DMSO 5%. Sixteen hours after the injection, rats were euthanized and the hearts explanted for further analyses. In another experiment, rats received 3-day pretreatment with: 1) […]); or 5) LPS (10 mg/kg). Myocardial samples (0.25 g) were homogenized, mixed with Buffer A Mix [Hepes (pH 7.9) 10 mM, KCl 10 mM, EDTA 10 mM, DTT 100 mM, protease inhibitor cocktail, and IGEPAL 10%, (Sigma, St Lois, Mo.)], homogenized again and incubated for 15 min on ice, and centrifuged at 850×g for 10 min at 4° C. The supernatant was discharged, Buffer A Mix was added again and the samples incubated for an additional 15 min on ice, and centrifuged at 15,000×g for 3 min at 40 C. The supernatant contains the cytosolic fraction was collected. The pellet was resuspended in 150 μl of Buffer B Mix [Hepes (pH 7.9) 20 mM, NaCl 0.4M, EDTA 1 mM, glycerol 10%, protease inhibitor cocktail, and IGEPAL 10%], the tubes were shaked on ice at 200 rpm for 2 h, centrifuged at 15,000×g for 5 min at 4° C., and supernatants were collected as the nuclear fraction. […] The hearts were rapidly explanted, rinsed in cold PBS (pH 7.4), containing 0.16 mg/ml heparin to remove red blood cells and clots, frozen in liquid nitrogen and stored at -70° C. Myocardial samples from the anterior left ventricular wall were homogenized in RIPA lysis buffer (Santa Cruz Biotechnology, Santa Cruz, Calif.) and centrifuged at 14,000 rpm for 15 min at 4° C. The supernatant was collected and the total protein concentration was determined using the Lowry protein assay. […] The protein samples with loading buffer were run in 4-20% Tri-HCl Ready Gel at a 100V for 2 h until the desired molecular weight bands were separated. After electrophoresis, the gel was equilibrated in transfer buffer (25 mM Tris, 193 mM glycine, 0.1% SDS and 10% methanol) and the proteins were transferred to nitrocellulose membrane. The protein signals were quantified by an image-scanning-densitometer and the strength of each protein signal was normalized to the corresponding b-actin stain signal. Data are expressed as a ratio between the protein and the corresponding b-actin signal density.

rat infarct model = assay: rat infarct model, infarct size; type: in vivo; conditions: ATV 2 mg/kg/d, cilostazol 20 mg/kg/d, alone or combined
Procedure: The effects of cilostazol (Pletal) and atorvastatin on myocardial protection was measured in a rat infarct model. Pletal is a phosphodiesterase III inhibitor, thus increasing intracellular cAMP levels. cAMP activates PKA. ATV at 2 mg/kg/d had no effect. Cilostazol 20 mg/kg/d reduced infarct size. However, when combined with ATV 2 mg/kg/d the effect was much greater. There are 8 rats in the control and ATV 2 mg/kg/d groups and 6 rats in the cilostazol and the combination groups. Infarct size in the ATV 2 mg/kg/d (30.48±1.46%) is not different from the controls (33.97±2.76%).

[4] = whole cell homogenate, PIO or ATV 10 mg/kg/d 3 days, H-89 20 mg/kg i.p.

Q: Which “calcium ionophore (A23187) induction of reactive oxygen species” value [1] does the source give for `CC(C)c1ccc2c(c1)c(SC(C)(C)C)c(CC(C)(C)C(=O)O)n2Cc1ccc(Cl)cc1` [MK886] here?
A: prevented

Q: With `CCc1ccc(CCOc2ccc(CC3SC(=O)NC3=O)cc2)nc1` (centres unmarked) [PIO, 5-[[4-[2-(5-ethylpyridin-2 yl)ethoxy]phenyl]methyl]thiazolidine-2,4-dione] as the compound, how does the “5LO phosphorylation, PIO and ATV compared with LPS” value ([2]; PIO, ATV 10 mg/kg/d, LPS 10 mg/kg i.v.) read?
A: significantly greater increase

Q: And the “myocardial levels of Ser523 phosphorylated 5LO (P-5LO)” value [2, 4]?
A: augment; also recorded: increased

Q: And the “myocardial total 5LO levels” value [2, 4]?
A: without detectable change; also recorded: did not affect

Q: What about the “5LO mRNA levels in the cardiomyocytes” value (5LO mRNA) of the same compound?
A: did not affect

Q: What about the “fraction in which the co-immunoprecipitation with 5LO occurred” value ([3]; cytosolic and membranous fractions) of the same compound?
A: in the cytosolic, but not the membranous fraction; also recorded: only in the cytosolic fraction

Q: What about the “co-immunoprecipitation of COX2 or cPLA2 with 5LO” value ([3]; whole cell lysate) of the same compound?
A: 5LO precipitated with COX2 and COX2, but not cPLA2, precipitated with 5LO

Q: What about the “5LO levels in the cytosolic fraction” value (5LO) of the same compound?
A: small, yet significant increase

Q: And the “5LO levels in the membranous fraction” value (5LO)?
A: no detectable effect

Q: With `O=C1CCc2cc(OCCCCc3nnnn3C3CCCCC3)ccc2N1` [cilostazol] as the compound, how does the Infarct size (rat infarct model) read?
A: 15.47±1.61%

Q: What about the “effect on infarct size (in words)” value (rat infarct model) of the same compound?
A: reduced

— US20090042849A1, “Phosphorylation of 5-lipoxygenase at ser523 and uses thereof” (priority 2006, published 2009)
